Source: patent US12201622B2, “Continuous delivery of lenalidomide and other immunomodulatory agents” (Starton Therapeutics, Inc., priority 2019, dated 2025)
“Also recorded” adds a separate entry of the source.

Columns and labels:
[1] = Blood levels of lenalidomide in SCID mice after daily intraperitoneal dose; assay type: in vivo, SCID mouse; conditions: Group 2: 500 mcg ip once a day
Description: In the study described in Example 1, the SCID mice in Group 2 were given the standard of care treatment which is a daily intraperitoneal dose of 25 mg/kg (500 mcg for 20 gm mouse) administered once a day. […] For example, if the continuous blood level is greater than that observed at 16 hours but less than that observed at 10 hours in daily intraperitoneal dose of 500 mcg administered once a day, it is effective and non-toxic. The maintenance of continuous dose specific blood levels in terms of their time range are predicted to be safe and effective and result in activity in humans.
(§1) Six groups of female CB.17 SCID mouse, each containing ten mice, were subcutaneously injected with 1×10^7 H929 multiple myeloma tumor cells in 50% Matrigel. After the tumor reached an average size of 100-150 mm^3, an iPrecio pump was surgically implanted into each of the mice. Dosing began twenty-four hours post pump implantation. Group 1, the control group, was treated with vehicle via intraperitoneal injection once a day. Group 2 was treated with lenalidomide via intraperitoneal injection once a day. Each of Groups 3-6 was treated lenalidomide via continuous subcutaneous infusion at different hourly rate. The dosing lasted 14 days followed by one day off the treatment and lasted for another 14 days. The iPrecio pump was replaced after 14 days. The formulation used in Groups 2-6 contains 20% PEG400 in water as the carrier. Blood was drawn at predetermined time points and analyzed
The multiple myeloma study in SCID mice provides pharmacokinetically modeled data to support three treatment paradigms. The standard of care treatment in the mouse model study is a daily intraperitoneal dose of 500 mcg administered once a day (see Group 2). […] The range of tolerable and effective blood levels ranged from the blood level at 10 hours to the blood level at 16 hours. Continuous blood levels of greater than those observed at 8 hours or 0.29 mcg/mL and lower than those observed at 18 hours or 0.013 mcg/mL were either toxic or ineffective, respectfully. The maintenance of continuous dose specific blood levels in terms of their time range are predicted to be safe and effective and result in activity in humans.

[2] = system: H929 multiple myeloma tumor cells; assay: Efficacy of lenalidomide continuous infusion in H929 myeloma xenograft model; assay type: in vivo, CB.17 SCID mouse
Text: In this study, a composition comprising lenalidomide was continuously delivered via subcutaneous infusion or was delivered once a day via intraperitoneal injection to SCID mice wherein the mice were implanted with a H929 multiple myeloma xenograft.
as §1
The table below lists the daily dose and schedule for each of the six groups.

[3] = Body weight and hematologic toxicity (WBC, PLT, ANC) in xenografted SCID mice; assay type: in vivo, CB.17 SCID mouse; conditions: for ANC: normal range 0.77-2.5; for WBC: normal range 1.4-5.4; for PLT: normal range 733-1441
Description: as §1

[4] = Group 3: 144 μg/day (6 μg/hr) sc continuous, day 8
[5] = Group 4: 48 μg/day (2 μg/hr) sc continuous, day 8
[6] = Group 5: 24 μg/day (1 μg/hr) sc continuous, day 8
[7] = Group 6: 12 μg/day (.5 μg/hr) sc continuous, day 8

`Nc1cccc2c1CN(C1CCC(=O)NC1=O)C2=O` (stereo not shown) [lenalidomide, 3-(4-amino-1-3-dihydro-1-oxo-2H-isoindol-2yl)-2,6-piperidinedione] gave a blood level trough [1] of 2 ng/mL, a Cmax ([1]; female, CB.17 SCID, mouse, blood, 500 ug, at 0.08 hours, read-out: blood level Cmax) of 2900 ng/mL and a concentration at 8 h ([1]; female, CB.17 SCID, mouse, blood, 25 mg/kg, read-out: blood level at 8 hours) of 290 ng/mL. For the same molecule, the concentration at 18 h ([1]; female, CB.17 SCID, mouse, blood, 25 mg/kg, read-out: blood level at 18 hours) was 13 ng/mL, the “survival (Kaplan-Meier)” value ([2]; Group 2: 500 μg/day ip qd) was “no mouse survived at day 52” and the tumor volume ([2]; Group 2: 25 mg/kg (500 μg/day) ip qd x 14/1 day off/qd x 14, 25 mg/kg) was “failed to inhibit the growth of the tumor volume; also recorded: slowed progression but did not inhibit the growth of the tumor size”. For the same molecule, the tumor volume ([2]; Group 3: 144 μg/day (6 μg/hr) continuous sc infusion, 14 days/1 day off/14 days) was “the only group having tumor volume reduced during the treatment schedule; also recorded: effectively reduced the tumor size in all animals treated at 6 mcg/hr”, the “survival (Kaplan-Meier)” value ([2]; Group 3: 144 μg/day continuous sc infusion, day 1 to day 95) was “the only group having mice survived for 95 days” and the ANC ([3]; Group 2: 25 mg/kg ip qd, day 8) was 1.2 10^3 cells/μL. For the same molecule, the WBC ([3]; Group 2: 25 mg/kg ip qd, day 8) was 1.8 10^3 cells/μL, the PLT ([3]; Group 2: 25 mg/kg ip qd, day 8) was 850 10^3 cells/μL and the ANC [3, 4] was 2.4 10^3 cells/μL. For the same molecule, the WBC [3, 4] was 2.8 10^3 cells/μL, the PLT [3, 4] was 1360 10^3 cells/μL and the ANC [3, 5] was 1.9 10^3 cells/μL. For the same molecule, the WBC [3, 5] was 2.4 10^3 cells/μL, the PLT [3, 5] was 1345 10^3 cells/μL and the ANC [3, 6] was 2.8 10^3 cells/μL. The WBC [3, 6] was 3.3 10^3 cells/μL, the PLT [3, 6] was 1410 10^3 cells/μL and the ANC [3, 7] was 2.5 10^3 cells/μL. For the same molecule, the WBC [3, 7] was 3.2 10^3 cells/μL, the PLT [3, 7] was 1535 10^3 cells/μL and the body weight ([3]; continuous sc infusion (Group 3, 144 μg/day)) was “insignificant weight loss; also recorded: did not result in substantial loss of body weight”. The hematologic toxicity ([3]; continuous sc infusion, Groups 3-6 (12-144 μg/day), day 8) was “no substantial hematologic toxicity; also recorded: did not result in substantial loss of body weight or hematologic toxicity”.
